{"source": "patent US20250368662A1", "about": "“INHIBITORS OF INDOLEAMINE 2,3-DIOXYGENASE 1 (IDO1) AND TRYPTOPHAN 2,3-DIOXYGENASE (TDO) AND METHODS OF USING SAME” (University of South Carolina, priority 2024, published 2025)", "test_system": "EO771 cells", "experiment": "Mouse model of breast cancer (EO771 cells in mammary fat pads)", "assay_type": "in vivo", "conditions": "female C57Bl/6 mice, i.p. 10 mg/kg every other day for 3 weeks", "source_text": "In a mouse model of breast cancer, 8-week-old female C57Bl/6 mice were inoculated with EO771 cells in the 4th pair of mammary fat pads. […] Mice were sacrificed 24 days after cell inoculation."}
{"compound": "O=C(NCCCCC1CN2C(c3ccc4ccccc4c3)=CSC2=N1)Nc1ccccc1", "note": "(centres unmarked) [USCYL01]", "values": [{"measurement": "body weight", "result": "did not affect"}, {"measurement": "weights of the heart, liver, lungs, kidney, brain, and lymph nodes", "result": "did not affect"}]}
